Data from US11939334B2, “Substituted pyrimido[4,5-b][1,4]diazepines as PLK1 degradation inducers” (UPPTHERA, INC., priority 2021, dated 2024).

Columns and labels:
H526 cell line = assay: Cell viability assay for H526 cell line; type: cell-based; details: Homo sapiens, NCI-H526, 120 h; H526 cells, 5 days, EZ-Cytox, 0.46-3000 nM
Procedure: 3. Cell Viability Assay for H526 Cell Line
(1) Culture of NCI-H526 Cell Line
(2) Treatment of Compounds of the Present Invention and Method of Cell Viability Assay
After treating the compound to each well to make the total volume of 200 μL, it was cultured in a CO2 incubator (Thermo Fisher Science, Cat. No. 4111) for 5 days.
The absorbance of the completely cultured sample was measured by setting the wavelength of a plate reader (BMG Labtech, CLARIOstar Plus) to […], and was measured after shaking for 3 minutes in a plate reader before measurement.
In Table 3, Activity represents IC50 value of each Exemplary Compound treatment group to H526 cell line (A: <30 nM, B: <50 nM, C: <100 nM, D: <200 nM, E: <400 nM).

PLK1 = target: T1, PLK1 (Homo sapiens, UniProt P53350); assay: Luciferase assay for PLK1 in HeLa LgBit (Plk1-HiBit KI) cell line; type: cell-based; details: 300 nM compound, luminescence after 9 hours
T1 construct: endogenous in cells; host or cells: HeLa cells stably expressing LgBit, with CRISPR/Cas9 knock-in of HiBit at the endogenous PLK1 locus
T1 sequence (P53350 whole entry): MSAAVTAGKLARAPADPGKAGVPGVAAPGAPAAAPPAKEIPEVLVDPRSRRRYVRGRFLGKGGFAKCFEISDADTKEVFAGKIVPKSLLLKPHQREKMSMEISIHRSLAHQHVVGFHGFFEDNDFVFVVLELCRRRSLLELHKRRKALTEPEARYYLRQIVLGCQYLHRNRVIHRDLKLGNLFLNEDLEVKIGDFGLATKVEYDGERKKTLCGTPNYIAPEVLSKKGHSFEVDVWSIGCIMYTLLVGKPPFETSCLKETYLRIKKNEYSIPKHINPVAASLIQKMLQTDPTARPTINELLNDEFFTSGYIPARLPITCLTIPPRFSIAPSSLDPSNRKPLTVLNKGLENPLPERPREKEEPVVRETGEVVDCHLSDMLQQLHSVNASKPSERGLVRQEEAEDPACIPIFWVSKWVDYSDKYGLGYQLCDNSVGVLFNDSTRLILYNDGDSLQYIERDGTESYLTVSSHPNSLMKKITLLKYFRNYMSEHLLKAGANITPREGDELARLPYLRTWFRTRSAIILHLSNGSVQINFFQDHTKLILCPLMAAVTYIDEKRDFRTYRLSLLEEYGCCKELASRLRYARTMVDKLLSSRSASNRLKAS
Procedure: 2. Luciferase Assay for PLK1
(1) Preparation and Culture of HeLa LgBit (Plk1-HiBit KI) Cell Line
A HeLa cell line in which the LgBit vector was transfected and expressed stably was prepared. Then, after constructing gRNA and donor to express the HiBit amino acid sequence behind the C-terminal of the Plk1 gene, which was inherent in the cell, it was inserted into the cell together with a vector capable of expressing CRISPR/Cas9. Only the cells in which the insertion was completed and knock-in had progressed were selected, sub-cultured and used.
(2) Treatment of Compounds of the Present Invention and Method of Luciferase Assay
In the case of HeLa LgBit (Plk1-HiBit KI), the compounds were treated after being released after thymidine block, and the process was as follows. Thymidine (Sigma-Aldrich Cat. No. T9250-5G) was completely dissolved in DW and used in the experiment. For thymidine block, the products were treated with 2 mM of thymidine and then incubated for 24 hours. For release and chemical treatment, the medium was suctioned and washed with 1×PBS. TrypLE™ was added and incubated in 37° C. CO2 incubator for 5 min. Cells neutralized by adding complete media were counted through a counter. For each well of a 96-well culture plate (SPL), 3.3×10^4 cells and a total medium volume of 150 μL were seeded and incubated in a CO2 incubator.
Each cell line was incubated in a CO2 incubator for 18 hours, and Endurazine was added to each well to make up 4% of the total volume. After adding the compound of the present invention in a 96-well white plate (SPL) to a concentration of 300 nM, the wavelength of the plate reader (BMG Labtech, CLARIOstar Plus) was set to […], and then the luminescence was tracked in real time.
The results are shown in Table 2 below and FIGS. 1 and 2.
In Table 2, Activity represents the ratio of the luminescence value of each Exemplary Compound treatment group to DMSO treatment group (+++: <0.3, ++ <0.6, + <0.7).

Row | Activity: ratio of the luminescence value of each Exemplary Compound treatment group to DMSO treatment group (PLK1) | SMILES | IC50 (H526 cell line)
1 | ++ (++ <0.6) | COc1cc(C(=O)NC2CC3(CCN(CCC4CCN(c5ccc(C6CCC(=O)NC6=O)cc5F)CC4)CC3)C2)ccc1Nc1ncc2c(n1)N(C(C)C)CC(F)(F)C(=O)N2C (stereo not shown) [Compound 29, 4-((7,7-difluoro-9-isopropyl-5-methyl-6-oxo-6,7,8,9-tetrahydro-5H-pyrimido[4,5-b][1,4]diazepin-2-yl)amino)-N-(7-(2-(1-(4-(2,6-dioxopiperidin-3-yl)-2-fluorophenyl)piperidin-4-yl)ethyl)-7-azaspiro[3.5]nonan-2-yl)-3-methoxybenzamide] | < 30 nM
2 | ++ (++ <0.6) | COc1cc(C(=O)NC2CC3(CCN(CC4CCN(Cc5ccc(C6CCC(=O)NC6=O)cc5F)CC4)CC3)C2)ccc1Nc1ncc2c(n1)N(C(C)C)CC(F)(F)C(=O)N2C (stereo not shown) [Compound 34, 4-((7,7-difluoro-9-isopropyl-5-methyl-6-oxo-6,7,8,9-tetrahydro-5H-pyrimido[4,5-b][1,4]diazepin-2-yl)amino)-N-(7-((1-(4-(2,6-dioxopiperidin-3-yl)-2-fluorobenzyl)piperidin-4-yl)methyl)-7-azaspiro[3.5]nonan-2-yl)-3-methoxybenzamide] | 
3 | ++ (++ <0.6) | COc1cc(C(=O)NC2CC3(CCN(C[C@H]4C[C@@H]5C[C@H]4CN5c4ccc(C5CCC(=O)NC5=O)cc4F)CC3)C2)ccc1Nc1ncc2c(n1)N(C(C)C)CC(F)(F)C(=O)N2C (stereo partly drawn) [Compound 27, 4-((7,7-difluoro-9-isopropyl-5-methyl-6-oxo-6,7,8,9-tetrahydro-5H-pyrimido[4,5-b][1,4]diazepin-2-yl)amino)-N-(7-(((1R,4R,5S)-2-(4-(2,6-dioxopiperidin-3-yl)-2-fluorophenyl)-2-azabicyclo[2.2.1]heptan-5-yl)methyl)-7-azaspiro[3.5]nonan-2-yl)-3-methoxybenzamide] | < 30 nM
4 | ++ (++ <0.6) | COc1cc(C(=O)NC2CC3(CCN(CC4CCN(c5ccc(C6CCC(=O)NC6=O)cc5F)C(=O)C4)CC3)C2)ccc1Nc1ncc2c(n1)N(C(C)C)CC(F)(F)C(=O)N2C (stereo not shown) [Compound 28, 4-((7,7-difluoro-9-isopropyl-5-methyl-6-oxo-6,7,8,9-tetrahydro-5H-pyrimido[4,5-b][1,4]diazepin-2-yl)amino)-N-(7-((1-(4-(2,6-dioxopiperidin-3-yl)-2-fluorophenyl)-2-oxopiperidin-4-yl)methyl)-7-azaspiro[3.5]nonan-2-yl)-3-methoxybenzamide] | < 30 nM
5 | ++ (++ <0.6) | COc1cc(C(=O)NC2CC3(CCN(CCC4(C)CCN(c5ccc(C6CCC(=O)NC6=O)cc5F)C4)CC3)C2)ccc1Nc1ncc2c(n1)N(C(C)C)CC(F)(F)C(=O)N2C (stereo not shown) [Compound 26, 4-((7,7-difluoro-9-isopropyl-5-methyl-6-oxo-6,7,8,9-tetrahydro-5H-pyrimido[4,5-b][1,4]diazepin-2-yl)amino)-N-(7-(2-(1-(4-(2,6-dioxopiperidin-3-yl)-2-fluorophenyl)-3-methylpyrrolidin-3-yl)ethyl)-7-azaspiro[3.5]nonan-2-yl)-3-methoxybenzamide] | < 30 nM

More lines, now with the values behind:

Row | SMILES | Activity: ratio of the luminescence value of each Exemplary Compound treatment group to DMSO treatment group (PLK1) | IC50 (H526 cell line)
6 | COc1cc(C(=O)NC2CC3(CCN(CC4CCN(c5ccc(C6CCC(=O)NC6=O)cc5F)CC4)CC3)C2)ccc1Nc1ncc2c(n1)N1CCC[C@@H]1CC(=O)N2C (stereo partly drawn) [Compound 24, N-(7-((1-(4-(2,6-dioxopiperidin-3-yl)-2-fluorophenyl)piperidin-4-yl)methyl)-7-azaspiro[3.5]nonan-2-yl)-3-methoxy-4-(((R)-5-methyl-6-oxo-6,7,7a,8,9,10-hexahydro-5H-pyrimido[5,4-b]pyrrolo[1,2-d][1,4]diazepin-2-yl)amino)benzamide] | ++ (++ <0.6) | < 100 nM
7 | COc1cc(C(=O)NC2CCC(N(C)CC3CCN(c4ccc(C5CCC(=O)NC5=O)cc4F)CC3)CC2)ccc1Nc1ncc2c(n1)N(C(C)C)CC(F)(F)C(=O)N2C (stereo not shown) [Compound 8, 4-((7,7-difluoro-9-isopropyl-5-methyl-6-oxo-6,7,8,9-tetrahydro-5H-pyrimido[4,5-b][1,4]diazepin-2-yl)amino)-N-((1s,4s)-4-(((1-(4-(2,6-dioxopiperidin-3-yl)-2-fluorophenyl)piperidin-4-yl)methyl)(methyl)amino)cyclohexyl)-3-methoxybenzamide] | ++ (++ <0.6) | 
8 | COc1cc(C(=O)NC2CCC(CCN3CCN(c4ccc(C5CCC(=O)NC5=O)cc4F)CC3)CC2)ccc1Nc1ncc2c(n1)N(C(C)C)CC(F)(F)C(=O)N2C (stereo not shown) [Compound 41, 4-((7,7-difluoro-9-isopropyl-5-methyl-6-oxo-6,7,8,9-tetrahydro-5H-pyrimido[4,5-b][1,4]diazepin-2-yl)amino)-N-((1s,4s)-4-(2-(4-(4-(2,6-dioxopiperidin-3-yl)-2-fluorophenyl)piperazin-1-yl)ethyl)cyclohexyl)-3-methoxybenzamide] | ++ (++ <0.6) | 
9 | COc1cc(C(=O)NC2CCN(C3CCN(c4ccc(C5CCC(=O)NC5=O)cc4F)C3)CC2)ccc1Nc1ncc2c(n1)N(C(C)C)CC(F)(F)C(=O)N2C (stereo not shown) [Compound 59, 4-((7,7-difluoro-9-isopropyl-5-methyl-6-oxo-6,7,8,9-tetrahydro-5H-pyrimido[4,5-b][1,4]diazepin-2-yl)amino)-N-(1-(1-(4-(2,6-dioxopiperidin-3-yl)-2-fluorophenyl)pyrrolidin-3-yl)piperidin-4-yl)-3-methoxybenzamide] | ++ (++ <0.6) | 
10 | COc1cc(C(=O)NN2CCC(CN3CCN(C(=O)c4ccc(OC)c(N5CCC(=O)NC5=O)c4)CC3)CC2)ccc1Nc1ncc2c(n1)N(C(C)C)CC(F)(F)C(=O)N2C [Compound 51, 4-((7,7-difluoro-9-isopropyl-5-methyl-6-oxo-6,7,8,9-tetrahydro-5H-pyrimido[4,5-b][1,4]diazepin-2-yl)amino)-N-(4-((4-(3-(2,4-dioxotetrahydropyrimidin-1(2H)-yl)-4-methoxybenzoyl)piperazin-1-yl)methyl)piperidin-1-yl)-3-methoxybenzamide] | + (+ <0.7) | 
11 | COc1cc(C(=O)NC2CC3(CCN(CC4CCN(c5ccc(C6CCC(=O)NC6=O)c(OC)c5)CC4)CC3)C2)ccc1Nc1ncc2c(n1)N(C(C)C)CC(F)(F)C(=O)N2C (stereo not shown) [Compound 37, 4-((7,7-difluoro-9-isopropyl-5-methyl-6-oxo-6,7,8,9-tetrahydro-5H-pyrimido[4,5-b][1,4]diazepin-2-yl)amino)-N-(7-((1-(4-(2,6-dioxopiperidin-3-yl)-3-methoxyphenyl)piperidin-4-yl)methyl)-7-azaspiro[3.5]nonan-2-yl)-3-methoxybenzamide] | ++ (++ <0.6) | 
